In patent EP0035619B1, “Derivatives of 3-amino-(1H,3H)-2,4-quinazolin-diones” (BERRI-BALZAC Société dite:, priority 1980, dated 1981):

Tests used:
Assay type in all cases: in vivo
[1] = tested on: souris; assay: Sedative action: sedation index (hole-board exploration, hypothermia, mobility, agility)
Text: (§1) L'action sédative est mesurée par un indice de sédation. Cet indice de sédation tient compte du pourcentage, chez la souris, de la diminution de l'exploration de la planche à trous par rapport à des témoins, de l'hypothermie, de la mobilité, de l'agilité. Les résultats pour le composé de l'exemple 3, sont donnés au Tableau Il.
as §1, with “3” for “3,”, “II.” for “Il.”

[2] = Potentiation of psychotropic drugs (Nembutal, Chlorpromazine, morphine) and antagonism of amphetamine
Text: (§2) D'autre part, il faut noter une potentialisation par les composés de formule (I) des psychotropes : Nembutal, Chlorpromazine, morphine, et un antagoniste de l'amphétamine. A titre d'exemple, le composé de l'exemple 3 potentialise l'effet hypnotique du Nembutal de + 146 %, celui de la Chlorpromazine de + 50 % et celui de la morphine de 40 %. Par contre, il antagonise à 70 % les effets de l'amphétamine.
as §2, with “morphine” for “morphine,”

[3] = tested on: souris Swiss; assay: Acute toxicity (LD50) in Swiss mice
Protocol: Les toxicités aiguës ont été déterminées sur la souris Swiss.
Par exemple, pour le composé de l'exemple 3, la DL50 par voie IP est de 250 mg et per os de 225 mg.

[4] = tested on: rat vigile; assay: Diuretic action in the conscious rat with i.p. isotonic sodium chloride load; conditions: mean increase of diuresis versus mean of controls
Protocol: (§3) L'action diurétique est mesurée sur le rat vigile traité par 25 ou 50 mg/kg de substance à tester prise par voie orale ou intrapéritonéale et recevant une injection I.P. de soluté isotonique de chlorure de sodium au début de l'essai. Les rats sont groupés par trois et les expériences sont répétées en croisant les lots de rats.
La diurèse est exprimée par le pourcentage de l'augmentation moyenne de la diurèse par rapport à la moyenne des témoins.
as §3, with “IP” for “I.P.”

CN(C)n1c(=O)c2ccccc2n(C)c1=O [Exemple 3, diméthylamino-3 méthyl-1 (1 H, 3H) quinazolinedione-2,4]
Indice de sédation ([1]; 50 mg/kg per os): 76 | Indice de sédation ([1]; 100 mg/kg per os): 164 | Indice de sédation chimique ([1]; 100 mg/kg per os): 179 | Indice de sédation ([1]; 100 mg/kg voie I.P.): 236 | potentialise l'effet de la Chlorpromazine ([2]; with Chlorpromazine): 50% | potentialise l'effet hypnotique du Nembutal ([2]; with Nembutal): 146% | antagonise les effets de l'amphétamine ([2]; with amphétamine): 70% | potentialise l'effet de la morphine ([2]; with morphine): 40% | DL50 ([3]; par voie IP): 250 mg | DL50 ([3]; per os): 225 mg | Diurèse ([4]; 25 mg/kg par voie IP): 60% | Diurèse ([4]; 25 mg/kg par voie orale): 77% | Diurèse ([4]; 50 mg/kg par voie IP): 200% | Diurèse ([4]; 50 mg/kg par voie orale): 200%
